Measurements: patent US7718768B2, “Biologically active peptide [sequence]” (CMS Peptides Patent Holding Company Limited, priority 2001, dated 2010)
Marks after values point to notes of the source that are not given here. No end group written: not given here.

Legend:
Assay type in all cases: in vivo, BALB/c mice
NK cell = NK cell cytotoxicity activity test (YAC-1 target cells, MTT) on spleen cells of treated mice; conditions: IFN-γ and IL-2 groups 3×10^5 IU/kg/day, X ± SD
Method: (§1) The above substances were all dissolved in 0.5 ml saline and injected intraperitoneal (i.p.) for 15 continuous days, once per day.
(§2) Ten mice per group. The day after the last test substance administration, the mice were sacrificed by cervical dislocation. The spleen was isolated aseptically and manually dispersed in cold D-Hank's solution using an injection needle. The dispersed cell suspension was further sieved through a 100 gauge 150 μm diameter stainless steel sieve. After centrifugation at 200 g for 10 minutes, the supernatant was discarded. The cell pellet was re-suspended in 10 volume of Tris-NH4Cl buffer and then kept standing still for 10 minutes at room temperature. The suspended cells were collected by centrifugation at 150 g for 10 minutes. The cells were washed 2-4 times with cold D-Hank's solution by re-suspending and collecting by centrifugation with condition as described above. The washed cells were then diluted to the desired cell densities by RPMI-1640 culture medium, containing 10% fetal bovine serum.
Mice spleen cells were prepared to 4×10^6/ml as described in section 1.1 above. Target cells YAC-1 were brought to log phase and adjusted to 1×10^5/ml. Using a 96 wells cell culture plate, 100 μl mouse spleen cells and 100 μl culture medium were added to the control well containing only the spleen cells; 100 μl target cells and 100 μl culture medium were added to the control well containing only target cells; 100 μl mouse spleen cells and 100 μl target cells were added to the NK activity assay well. Three parallel sets of the above were prepared per mouse.
Samples were centrifuged at 150 g for 10 minutes to collect the cells. The supernatant was discarded and 50 μl/well MTT of 1 mg/ml was added. The reaction mixture was then shaken for 2 minutes, and incubated at 37° C., 5% CO2 for 4 hours. The supernatant was discarded after centrifugation at 150 g for 10 minutes. 120 μl 40 mM HCl-2-propanol was added and shaken for 3 minutes. An ELISA reader was used to obtain OD570nm of each well referenced at 630 nm.

anti-SRBC antibody = test: Sheep Red Blood Cell (SRBC) hemolysis test, anti-SRBC antibody formation; conditions: SRBC on day 12, IFN-γ and IL-2 groups 3×10^5 IU/kg/day, X ± SD
Method: Sheep red blood cells (SRBC) were prepared by collecting blood from cervical vein and put into a sterile flask with glass beads. The flask was shaken for 3 minutes and the blood then mixed with Alsever solution (glucose 2.05 g, NaCl 0.4 g, […] 0.8 g, adjust to 100 ml with distilled water) and stored at 4° C. Immediately before use, samples were centrifuged at 130 g, 5 minutes to collect the SRBC. The cells were washed two times by re-suspension and centrifugation in normal saline. Then the cell pellet was collected by centrifugation at 180 g for 10 minutes and re-suspended in saline to make the final working SRBC suspension, 2% (v/v).
Complement was prepared by adding 10 volumes of fresh Cavy serum into one volume centrifuge packed SRBC, and then gently shaking for 30 minutes at 4° C. The SRBC was removed by centrifugation at 200 g for 10 minutes. 10 volumes of normal saline were added to obtain the working complement solution.
The test substances were administered as described in section 1.1, plus intraperitoneal injection 0.2 ml SRBC per mouse on day 12. On the day after the last test substance administration (day 16), blood was collected from the eye canthus and left at room temperature for one hour for serum exudation. After centrifugation at 200 g for 10 minutes, the serum was diluted by 500 times with normal saline.
To 1 ml diluted mouse serum of each mouse, 0.5 ml SRBC suspension was added. Ice cold. Then 1 ml working complement solution was added and incubated at 37° C. water bath for 10 minutes. Reactions were terminated by ice cold. Samples were then centrifuged at 200 g for 10 minutes to obtain the supernatant.
To 1 ml of this supernatant, 3 ml Drabkin solution was added and left at room temperature for 10 minutes. OD540nm was obtained.
Reference OD540nm was obtained by mixing 0.25 ml SRBC suspension with Drabkin solution to 4 ml and placed at room temperature for 10 minutes before OD540nm was taken. Sample serum index=(OD540nm of test sample[…]reference OD540nm)×500 3. The Effect of Peptides on the Phagocytosis Function of Mononuclear Phagocyte and the Weight of Immune Organ^[8,9].

[1] = immunity organ weight test (thymus gland index, spleen index); conditions: X ± SD
Method: as §1
(§3) One day after the last test substance administration (day 16), the liver, spleen, and thymus gland were separated and blotted dry with filter paper and weighed. The phagocytosis index α was calculated as below: α=(^3√K)(W÷WLS) key: W: body weight WLS: weight of liver plus spleen Thymus gland index(%)=(thymus weight/body weight)×100% Spleen index(%)=(spleen weight/body weight)×100%

T lymphocyte [2] = test: T lymphocyte transformation test (ConA, MTT) on spleen cells of treated mice; set-up: key: OD of assay wells divided by OD of control wells; conditions: IFN-γ and IL-2 groups 3×10^5 IU/kg/day, X ± SD
Method: as §1, §2
(§4) Spleen cells of density 1×10^6/ml were placed onto a 96 wells cell culture plate, 100 μl/well, three parallel wells each of the assay sample and control sample per mouse. To the assay wells, 100 μl/well ConA of 100 μg/ml in RPMI-1640 was added, and 100 μl/well plain RPMI-1640 was used for the controls. The cells were incubated for 66 hrs at 37° C., 5% CO2. The cells were then pelleted by centrifugation at 150 g for 10 minutes.
50 μl/well MTT of 1 mg/ml in RPMI-1640 was added to the cell pellet and the cells re-suspended by shaking for 2 minutes. The incubation was continued for 4 hours. The supernatant was discarded after centrifugation at 150 g for 10 minutes. 120 μl 40 mM HCl-2-propanol was added to the cell pellet and shaken for 3 minutes. to obtain OD570nm of each well referenced at 630 nm. An ELISA reader was used
Each mouse formed three assay wells and three control wells. The Stimulation Index (SI) of each mouse was obtained by first deriving the average OD of the three parallel wells, then dividing the value of the assay wells by the control wells.

T lymphocyte [3] = test: T lymphocyte IL-2 secretion test (HT-2 cell bioassay of ConA supernatant); conditions: IFN-γ and IL-2 groups 3×10^5 IU/kg/day, X ± SD
Method: as §1, §4
HT-2 cells at log phase were collected by centrifugation at 150 g for 10 minutes, and washed three times with cold Hank's solution by re-suspension and centrifugation. The collected HT-2 cells were re-suspended in RPMI-1640 and incubated at 37° C., 5% CO2 for 30 minutes. The cells were further washed twice with RPMI-1640 by re-suspension and centrifugation, and re-suspended to final concentration of 2×10^5/ml with RPMI-1640.
rIL-2 was diluted to the following concentration with RPMI-1640: 500 IU/ml, 250 IU/ml, 125 IU/ml, 62.5 IU/ml, 31.25 IU/ml, and […].
A 96 well cell culture plate was set up with three parallel wells per combination:
Negative control: 100 μl RPMI-1640+100 μl HT-2 cell suspension
rIL-2 standard: 100 μl rIL-2 solution+100 μl HT-2 cell suspension
Assay well: 100 μl diluted supernatant+100 μl HT-2 cell suspension
The plate was incubated at 37° C., 5% CO2 for 68 hours, then centrifuged at 150 g for 15 minutes and the supernatant removed. 100 μl 0.5 mg/ml MTT in RPMI-1640 without phenolsulfonphthalein was added into each well. After shaking for 3-4 minutes to re-suspend the cells, continue to incubate for another 4 hours. Samples were then centrifuged at 150 g for 15 minutes and the supernatant was removed. To each well, 120 μl 40 mM HCl-2-propanol was added, mixed for 3-4 minutes and OD analyzed at 570 nm, referenced at 630 nm with an ELISA plate reader.
The average OD of the three parallel wells of each dilution was taken and plotted against concentration on a semi-log paper, concentration on the X-axis. The concentration at 50% OD saturation was obtained for both the testing supernatant and rIL-2.

mononuclear phagocyte = test: carbon particle clearance test, phagocytotic activity of mononuclear phagocyte; set-up: key: α = (cube root of K)×(body weight ÷ liver+spleen weight); conditions: peptide 0.5 μg/kg/day i.p. 15 days; IFN-γ and IL-2 groups 3×10^5 IU/kg/day; X ± SD
Method: On the next day after the last test substance administration (day 16), the mice were injected with […] body weight India ink (5 times dilution with normal saline) from the tail vein.
One minute and five minutes after Indian ink injection, 20 μl blood was obtained from the eye can thus with a heparinized tubing. The blood was mixed with 2 ml 0.1% w/v Na2CO3 and then OD680nm obtained. The outline clear index K was calculated by the following formula: K=(lgA1−lgA2)÷(t2−t1) Key: A1: OD680nm at first minute A2: OD680nm at fifth minute t2: 5 minutes […]
as §3

[4] = peptide 500 μg/kg/day i.p. 15 days
[5] = peptide 0.5 μg/kg/day i.p. 15 days
[6] = peptide 5 μg/kg/day i.p. 15 days
[7] = peptide 50 μg/kg/day i.p. 15 days
[8] = peptide 5 μg/kg/day i.p. 15 days, IFN-γ and IL-2 groups 3×10^5 IU/kg/day
[9] = peptide 50 μg/kg/day i.p. 15 days, IFN-γ and IL-2 groups 3×10^5 IU/kg/day
[10] = peptide 500 μg/kg/day i.p. 15 days, IFN-γ and IL-2 groups 3×10^5 IU/kg/day
[11] = peptide 0.5 μg/kg/day i.p. 15 days, IFN-γ and IL-2 groups 3×10^5 IU/kg/day

Row | Substance | NK cell cytotoxic activity (NK cell activity index) (NK cell; [4]) | anti-SRBC antibody formation (sample serum index) (anti-SRBC antibody; [5]) | anti-SRBC antibody formation (sample serum index) (anti-SRBC antibody; [6]) | anti-SRBC antibody formation (sample serum index) (anti-SRBC antibody; [7]) | anti-SRBC antibody formation (sample serum index) (anti-SRBC antibody; [4]) | weight of thymus gland (thymus gland index) [1, 8] | weight of thymus gland (thymus gland index) [1, 9] | weight of spleen (spleen index) [1, 4] | stimulation index (T lymphocyte transformation) (T lymphocyte [2]; [6]) | stimulation index (T lymphocyte transformation) (T lymphocyte [2]; [4]) | activity of T lymphocyte in secreting IL-2 (T lymphocyte [3]; [6]) | activity of T lymphocyte in secreting IL-2 (T lymphocyte [3]; [4]) | weight of spleen (spleen index) [1, 9] | weight of thymus gland (thymus gland index) [1, 10] | phagocytotic index (mononuclear phagocyte) | NK cell cytotoxic activity (NK cell activity index) (NK cell; [7]) | weight of thymus gland (thymus gland index) [1, 11] | stimulation index (T lymphocyte transformation) (T lymphocyte [2]; [7]) | NK cell cytotoxic activity (NK cell activity index) (NK cell; [5])
1 | Ala Ala Phe [CMS023] | 79 ± 12 % | 108 ± 21*^@^ Unit | 166 ± 27*^@^ Unit | 84 ± 11*^@^ Unit | 110 ± 45*^@^ Unit | 0.23 ± 0.06 % | 0.20 ± 0.02*^@^ % | 0.36 ± 0.06 % | – | – | – | – | – | – | – | – | – | – | –
2 | Ala Gly Asp Asp Ala Pro Arg Ala Val Phe (AGDDAPRAVF; listed as Sus scrofa) [CMS007] | – | – | 122 ± 12*^@^ Unit | – | 69 ± 17*^@ Unit | – | – | 0.32 ± 0.05 % | 1.7 ± 0.1 | 1.6 ± 0.1 | 64 ± 12 IU | 86 ± 15*^ IU | – | – | – | – | – | – | –
3 | Phe Asn Glu Glu (FNEE; listed as Sus scrofa) [CMS029] | 87 ± 4 % | 18 ± 7* Unit | 147 ± 23*^@^ Unit | 143 ± 13*^@^ Unit | 115 ± 22*^@^ Unit | 0.21 ± 0.03 % | 0.18 ± 0.05 % | – | – | 1.7 ± 0.3 | – | – | 0.42 ± 0.04 % | 0.22 ± 0.04*^@^ % | – | – | – | – | –
4 | Phe Glu Glu Asn Met (FEENM; listed as Sus scrofa) [CMS027] | 88 ± 8 % | 99 ± 14*^@^ Unit | 117 ± 45*^@^ Unit | 93 ± 11*^@^ Unit | – | – | 0.21 ± 0.03*^@^ % | 0.37 ± 0.03 % | – | – | – | – | – | 0.20 ± 0.03*^ % | 6.4 ± 0.6 | – | – | – | –
5 | Phe Glu Ser Phe (FESF; listed as Sus scrofa) [CMS033] | 89 ± 8 % | 78 ± 12*^@ Unit | 128 ± 39*^@^ Unit | 112 ± 15*^@^ Unit | 143 ± 27*^@^ Unit | 0.20 ± 0.02 % | 0.18 ± 0.03 % | – | – | – | – | – | – | 0.25 ± 0.04*^@^ % | – | – | – | – | –
6 | TTYNSIM [CMS026] | 89 ± 7 % | 19 ± 6* Unit | 191 ± 17*^@^ Unit | 98 ± 9*^@^ Unit | – | 0.31 ± 0.05*^@^ % | 0.27 ± 0.02*^@^ % | – | – | – | – | – | – | 0.20 ± 0.03*^ % | – | 76 ± 9 % | 0.21 ± 0.05 % | – | –
7 | VVYPWTQRF [CMS002] | – | 4 ± 1* Unit | – | – | 87 ± 18*^@ Unit | 0.24 ± 0.05*^ % | 0.21 ± 0.02*^@^ % | – | – | 1.8 ± 0.3 | – | – | – | – | – | – | 0.26 ± 0.06*^@^ % | 2.6 ± 0.3*^@^ | 76 ± 9 %
